Test: wn = mass fraction of the nth substance listed
Details: 101 kPa, Liquid, Vibrating tube method

OCCNCCO [diethanolamine] + CCO
Details	mass density [kg/m3]
278.14 K, w1 = 0.1	827.791
278.14 K, w1 = 1	1107.05
278.15 K, w1 = 0.1999	854.007
278.15 K, w1 = 0.3	881.862
278.15 K, w1 = 0.3999	910.002
278.15 K, w1 = 0.5001	939.811
278.15 K, w1 = 0.5998	970.814
278.15 K, w1 = 0.7002	1004.37
278.15 K, w1 = 0.8001	1037.46
278.15 K, w1 = 0.8417	1051.46
278.15 K, w1 = 0.8997	1071.67
283.14 K, w1 = 0.1	823.639
283.14 K, w1 = 0.1999	849.953
283.14 K, w1 = 0.3	877.917
283.14 K, w1 = 1	1103.88
283.15 K, w1 = 0.3999	906.254
283.15 K, w1 = 0.5001	936.053
283.15 K, w1 = 0.5998	967.135
283.15 K, w1 = 0.7002	1000.78
283.15 K, w1 = 0.8001	1034
283.15 K, w1 = 0.8417	1048.09
283.15 K, w1 = 0.8997	1068.38
293.14 K, w1 = 0.1	815.297
293.14 K, w1 = 0.1999	841.801
293.14 K, w1 = 0.3	869.969
293.14 K, w1 = 0.5998	959.776
293.14 K, w1 = 0.8997	1061.73
293.15 K, w1 = 0.3999	898.495
293.15 K, w1 = 0.5001	928.504
293.15 K, w1 = 0.7002	993.608
293.15 K, w1 = 0.8001	1027.03
293.15 K, w1 = 0.8417	1041.24
293.15 K, w1 = 1	1097.51
303.14 K, w1 = 0.1	806.876
303.14 K, w1 = 0.3	861.949
303.14 K, w1 = 1	1091.06
303.15 K, w1 = 0.1999	833.564
303.15 K, w1 = 0.3999	890.674
303.15 K, w1 = 0.5001	920.9
303.15 K, w1 = 0.5998	952.376
303.15 K, w1 = 0.7002	986.404
303.15 K, w1 = 0.8001	1020.01
303.15 K, w1 = 0.8417	1034.3
303.15 K, w1 = 0.8997	1054.97
313.14 K, w1 = 0.1	798.332
313.14 K, w1 = 0.3	853.824
313.14 K, w1 = 1	1084.49
313.15 K, w1 = 0.1999	825.235
313.15 K, w1 = 0.3999	882.762
313.15 K, w1 = 0.5001	913.212
313.15 K, w1 = 0.5998	944.908
313.15 K, w1 = 0.7002	979.15
313.15 K, w1 = 0.8001	1012.95
313.15 K, w1 = 0.8417	1027.32
313.15 K, w1 = 0.8997	1048.11
323.14 K, w1 = 0.1	789.624
323.14 K, w1 = 0.1999	816.75
323.14 K, w1 = 0.3	845.563
323.14 K, w1 = 0.7002	971.82
323.14 K, w1 = 1	1077.78
323.15 K, w1 = 0.3999	874.726
323.15 K, w1 = 0.5998	937.339
323.15 K, w1 = 0.8001	1005.75
323.15 K, w1 = 0.8417	1020.28
323.15 K, w1 = 0.8997	1041.21
323.16 K, w1 = 0.5001	905.4
333.14 K, w1 = 0.1	780.704
333.14 K, w1 = 0.1999	808.075
333.14 K, w1 = 0.3	837.129
333.14 K, w1 = 1	1071
333.15 K, w1 = 0.3999	866.54
333.15 K, w1 = 0.5001	897.474
333.15 K, w1 = 0.5998	929.643
333.15 K, w1 = 0.7002	964.37
333.15 K, w1 = 0.8001	998.264
333.15 K, w1 = 0.8417	1013.15
333.15 K, w1 = 0.8997	1034.23
343.14 K, w1 = 0.1	771.521
343.14 K, w1 = 0.1999	799.163
343.14 K, w1 = 0.3	828.477
343.14 K, w1 = 0.5001	889.372
343.14 K, w1 = 0.8997	1027.15
343.14 K, w1 = 1	1064.14
343.15 K, w1 = 0.3999	858.164
343.15 K, w1 = 0.5998	921.798
343.15 K, w1 = 0.7002	956.784
343.15 K, w1 = 0.8001	990.826
343.15 K, w1 = 0.8417	1005.84
348.14 K, w1 = 0.1	766.805
348.14 K, w1 = 0.1999	794.6
348.14 K, w1 = 0.3	824.049
348.14 K, w1 = 0.5998	917.813
348.14 K, w1 = 1	1060.68
348.15 K, w1 = 0.3999	853.893
348.15 K, w1 = 0.5001	885.244
348.15 K, w1 = 0.7002	952.934
348.15 K, w1 = 0.8001	987.083
348.15 K, w1 = 0.8417	1001.85
348.15 K, w1 = 0.8997	1023.57

OCCNCCO [diethanolamine] + O
Details	mass density [kg/m3]
283.14 K, w1 = 1	1103.88
283.15 K, w1 = 0.1007	1011.98
283.15 K, w1 = 0.2002	1024.98
283.15 K, w1 = 0.2997	1038.45
283.15 K, w1 = 0.3999	1052.36
283.15 K, w1 = 0.5003	1065.24
283.15 K, w1 = 0.6024	1077.85
283.15 K, w1 = 0.6999	1088.2
283.15 K, w1 = 0.8004	1096.55
283.15 K, w1 = 0.8534	1099.73
283.15 K, w1 = 0.8995	1101.58
283.16 K, w1 = 0.9316	1102.57
283.16 K, w1 = 0.9591	1103.24
293.14 K, w1 = 0.8995	1095.4
293.15 K, w1 = 0.1007	1010.01
293.15 K, w1 = 0.2002	1022.35
293.15 K, w1 = 0.2997	1035.07
293.15 K, w1 = 0.3999	1048.19
293.15 K, w1 = 0.5003	1060.32
293.15 K, w1 = 0.6024	1072.33
293.15 K, w1 = 0.6999	1082.23
293.15 K, w1 = 0.8004	1090.42
293.15 K, w1 = 0.8534	1093.59
293.15 K, w1 = 0.9316	1096.37
293.15 K, w1 = 0.9591	1096.98
293.15 K, w1 = 1	1097.51
303.14 K, w1 = 0.6024	1066.59
303.14 K, w1 = 0.6999	1076.15
303.14 K, w1 = 0.8995	1089.06
303.14 K, w1 = 1	1091.06
303.15 K, w1 = 0.2002	1018.95
303.15 K, w1 = 0.2997	1031.08
303.15 K, w1 = 0.3999	1043.56
303.15 K, w1 = 0.8004	1084.12
303.15 K, w1 = 0.8534	1087.26
303.15 K, w1 = 0.9316	1090.01
303.15 K, w1 = 0.9591	1090.59
303.16 K, w1 = 0.1007	1007.1
303.16 K, w1 = 0.5003	1055.09
313.14 K, w1 = 0.6024	1060.6
313.14 K, w1 = 0.8004	1077.72
313.14 K, w1 = 1	1084.49
313.15 K, w1 = 0.1007	1003.4
313.15 K, w1 = 0.2002	1014.87
313.15 K, w1 = 0.3999	1038.5
313.15 K, w1 = 0.6999	1069.91
313.15 K, w1 = 0.8534	1080.78
313.15 K, w1 = 0.8995	1082.55
313.15 K, w1 = 0.9316	1083.49
313.15 K, w1 = 0.9591	1084.06
313.16 K, w1 = 0.2997	1026.54
313.16 K, w1 = 0.5003	1049.55
323.14 K, w1 = 0.5003	1043.69
323.14 K, w1 = 0.6024	1054.36
323.14 K, w1 = 1	1077.78
323.15 K, w1 = 0.1007	999.014
323.15 K, w1 = 0.2002	1010.18
323.15 K, w1 = 0.6999	1063.49
323.15 K, w1 = 0.8004	1071.18
323.15 K, w1 = 0.8534	1074.21
323.15 K, w1 = 0.8995	1075.95
323.15 K, w1 = 0.9316	1076.86
323.15 K, w1 = 0.9591	1077.4
323.16 K, w1 = 0.2997	1021.47
323.16 K, w1 = 0.3999	1033.03
333.14 K, w1 = 0.8995	1069.24
333.14 K, w1 = 1	1071
333.15 K, w1 = 0.1007	994.007
333.15 K, w1 = 0.2002	1004.93
333.15 K, w1 = 0.2997	1015.93
333.15 K, w1 = 0.3999	1027.17
333.15 K, w1 = 0.5003	1037.44
333.15 K, w1 = 0.6024	1047.86
333.15 K, w1 = 0.6999	1056.8
333.15 K, w1 = 0.8534	1067.5
333.15 K, w1 = 0.9316	1070.14
333.15 K, w1 = 0.9591	1070.66
333.16 K, w1 = 0.8004	1064.48
343.14 K, w1 = 0.2997	1009.93
343.14 K, w1 = 0.6024	1041.1
343.14 K, w1 = 0.6999	1049.92
343.14 K, w1 = 0.8995	1062.39
343.14 K, w1 = 1	1064.14
343.15 K, w1 = 0.1007	988.445
343.15 K, w1 = 0.2002	999.169
343.15 K, w1 = 0.3999	1020.9
343.15 K, w1 = 0.5003	1030.89
343.15 K, w1 = 0.8534	1060.63
343.15 K, w1 = 0.9316	1063.3
343.15 K, w1 = 0.9591	1063.82
343.16 K, w1 = 0.8004	1057.6
353.14 K, w1 = 0.2997	1003.5
353.14 K, w1 = 0.5003	1024.01
353.14 K, w1 = 0.6999	1042.78
353.14 K, w1 = 0.8995	1055.38
353.14 K, w1 = 0.9316	1056.33
353.14 K, w1 = 0.9591	1056.87
353.15 K, w1 = 0.1007	982.774
353.15 K, w1 = 0.2002	992.938
353.15 K, w1 = 0.3999	1014.25
353.15 K, w1 = 0.6024	1034.05
353.15 K, w1 = 0.8004	1050.51
353.15 K, w1 = 0.8534	1053.58
353.15 K, w1 = 1	1056.83
